Laboratory results as given in patent US20230043863A1, “HETEROAROMATIC DERIVATIVES FOR USE AS REGULATOR, PREPARATION METHOD THEREFOR AND USE THEREOF” (JIANGSU HANSOH PHARMACEUTICAL GROUP CO., LTD., priority 2018, published 2023).

How the values were obtained:
[1] = test system: JAK-STAT signal pathway of U266 cells; experiment: Inhibition of cellular JAK-STAT signal pathway (STAT3 phosphorylation) in U266 cells; type: cell-based, human; conditions: Homo sapiens, U-266, INF-a 1000 U/mL stimulation
Outline: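 U266 cells (100-300 K/well) preincubated 2 h at room temperature with serially diluted compound, then stimulated 15 min with IFN-α at 1000 U/mL final. After lysis, STAT3 phosphorylation read by LANCE Ultra TR-FRET (Eu antibody 0.5 nM, ULight antibody 5 nM, overnight) at 665 nm; IC50 from 4-parameter fit of inhibition versus DMSO and negative controls.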

[2] = test system: C57BL/6 mouse colitis model induced by DSS; experiment: C57BL/6 mouse colitis model induced by DSS, daily disease index; type: in vivo; conditions: po, 216 h, 10 mg/kg p.o. BID, Day 0-9, vs vehicle group, read-out: reduction ratio of DAI AUC
Experimental: To evaluate the drug efficacy of the embodiment compound on the C57BL/6 mouse colitis model induced by DSS (dextran sulfate sodium).
According to the weight of the animal, BioBook software was used to randomly group the animals on day −1 to ensure that the weight values of each group of animals were similar to reduce deviation, and the grouping and dosing regimen are shown in the following Table.
Drinking water containing DSS: an appropriate amount of DSS powder was dissolved in the autoclaved drinking water to prepare a 2% DSS solution.
On day −1, the animals were equally divided into 12 groups with 10 animals in each group. (Refer to Table 1 for specific grouping scheme)
From 9:00 on day 0 to 9:00 on day 6, the mice in groups 2 to 9 were given 2% DSS aqueous solution for 6 days (from day 0 to day 6), after which the mice were allowed to freely drink normal water for 3 days (from 9:00 on day 6 to before necropsy on day 9). The day of modeling was counted as day 0. The DSS aqueous solution was wrapped in tin foil to protect it from light. The DSS aqueous solution was replaced every 2 days.
The mice in group 1 are allowed to drink normal water freely for 9 days (from 9:00 on day 0 to before necropsy on day 9).
The recording frequency was once a day, and 4 levels were rated according to the following standards:
Bloody stool (0: negative; 4: positive);
Stool score (0: normal; 2: loose stool; 4: diarrhea)
Daily Disease Index (DAI) was obtained by dividing the sum the scores of the above 3 parts by 3. DAI-time (day) curve based on the daily DAI score was plotted, and the peak area (AUC) under the curve was calculated. The reduction ratio of DAI AUC was calculated by comparing the administration group with the vehicle group, with a calculation formula of (DAI AUCadministration group-DAI AUCvehicle)/DAI AUCVehicle×100%

JAK1 = JAK1 (Homo sapiens, UniProt P23458); experiment: JAK kinase activity inhibition, TR-FRET (JAK1); type: biochemical; conditions: TR-FRET kinase assay
Outline: (§1)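 TR-FRET read (≈620 and 665 nm) after EDTA quench and 1-24 h antibody detection at RT. Kinase 0.1-20 nM, peptide substrate + ATP, 0.5-5 h RT reaction in HEPES 50-250 mM, MgCl2 5-20 mM. IC50 from 4-parameter fit vs DMSO and no-kinase controls.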

TYK2 = TYK2 (Homo sapiens, UniProt P29597); experiment: JAK kinase activity inhibition, TR-FRET (TYK2); type: biochemical; conditions: TR-FRET kinase assay
Outline: as §1

JAK2 = JAK2 (Homo sapiens, UniProt O60674); experiment: JAK kinase activity inhibition, TR-FRET (JAK2); type: biochemical; conditions: TR-FRET kinase assay
Experimental: (§2) Experimental objective: The objective of this test is to test the inhibitory effect of the compound on JAK kinase activity.
(§3) Experimental method: the fluorescence resonance energy transfer (TR-FRET) method was used to test the inhibitory effect of the compound on JAK kinase activity, and the half inhibitory concentration IC50 of the compound on JAK kinase activity was obtained.
(§4) Kinase reaction was carried out in a white 384-well plate (PerkinElmer). 1-5 μL of different concentrations of the compound diluted with DMSO and ddH2O was added into each well, and 1-5 μL of the corresponding solvent was added to the positive control wells, followed by addition of 0.1-20 nM JAK kinase solution diluted with 1-5 μL of kinase buffer (HEPES 50-250 mM, MgCl2 5-20 mM, etc.) was added to each well. 1-5 μL of kinase buffer was added to the negative control well. 1-5 μL of substrate mixture containing peptide substrate and ATP was added. The plate was incubated at room temperature for 0.5-5 hours. […], EDTA and detection solution containing labeled antibody was added, and then the plate was incubated at room temperature for another 1-24 hours. The fluorescence signal value at about 620 nm and 665 nm of each well was measured by BioTek Synergy H1 plate reader, and the inhibition rate was calculated by the fluorescence signal value. According to the inhibition rate of different concentrations, the IC50 of the compound was obtained by curve fitting.
(§5) The percentage inhibition data of the wells treated with the compound was calculated with the positive control wells (DMSO control wells) and negative control wells (no kinase added) on the plate {% inhibition rate=100-[(test compound value-negative control value)]/(Positive control value-negative control value)×100}. IC50 value was calculated by using GraphPad prism to fit the data of different concentrations and corresponding percentage inhibition rates to a 4-parameter non-linear logic formula.

JAK3 = molecular target: T1, JAK3 (Homo sapiens, UniProt P52333); experiment: JAK kinase activity inhibition, TR-FRET (JAK3); type: biochemical; conditions: TR-FRET kinase assay
T1 sequence (P52333 1-1124): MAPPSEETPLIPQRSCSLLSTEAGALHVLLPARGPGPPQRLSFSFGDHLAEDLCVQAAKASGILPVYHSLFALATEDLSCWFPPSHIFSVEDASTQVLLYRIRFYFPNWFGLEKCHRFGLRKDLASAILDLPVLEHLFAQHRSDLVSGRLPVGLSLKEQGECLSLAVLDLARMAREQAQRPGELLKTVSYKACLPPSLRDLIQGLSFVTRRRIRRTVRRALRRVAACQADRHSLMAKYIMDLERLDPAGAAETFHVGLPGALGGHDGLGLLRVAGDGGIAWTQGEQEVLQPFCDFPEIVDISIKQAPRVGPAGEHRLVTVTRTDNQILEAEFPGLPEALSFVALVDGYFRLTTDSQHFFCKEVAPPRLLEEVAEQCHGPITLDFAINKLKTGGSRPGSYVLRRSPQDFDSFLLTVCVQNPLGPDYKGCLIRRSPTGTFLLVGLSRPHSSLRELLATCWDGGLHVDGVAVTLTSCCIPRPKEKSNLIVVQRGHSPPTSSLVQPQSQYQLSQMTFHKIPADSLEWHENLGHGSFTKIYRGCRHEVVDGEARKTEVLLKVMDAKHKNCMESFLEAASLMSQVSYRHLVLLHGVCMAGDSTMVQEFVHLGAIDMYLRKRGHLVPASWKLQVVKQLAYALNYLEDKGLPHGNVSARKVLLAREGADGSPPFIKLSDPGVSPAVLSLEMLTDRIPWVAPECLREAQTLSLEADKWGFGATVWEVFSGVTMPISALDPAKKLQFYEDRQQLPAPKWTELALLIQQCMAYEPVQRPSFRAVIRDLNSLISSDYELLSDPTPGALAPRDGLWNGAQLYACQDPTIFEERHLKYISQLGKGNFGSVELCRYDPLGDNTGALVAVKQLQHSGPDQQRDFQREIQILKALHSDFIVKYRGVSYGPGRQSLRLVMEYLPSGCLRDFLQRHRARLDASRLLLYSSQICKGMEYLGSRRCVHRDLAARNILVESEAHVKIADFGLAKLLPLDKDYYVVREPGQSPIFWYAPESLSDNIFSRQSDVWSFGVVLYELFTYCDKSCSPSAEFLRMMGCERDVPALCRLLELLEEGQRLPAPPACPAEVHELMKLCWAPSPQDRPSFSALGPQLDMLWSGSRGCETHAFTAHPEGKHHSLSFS
Experimental: as §2, §3, §4, §5

JAK1, sequence (P23458 whole entry): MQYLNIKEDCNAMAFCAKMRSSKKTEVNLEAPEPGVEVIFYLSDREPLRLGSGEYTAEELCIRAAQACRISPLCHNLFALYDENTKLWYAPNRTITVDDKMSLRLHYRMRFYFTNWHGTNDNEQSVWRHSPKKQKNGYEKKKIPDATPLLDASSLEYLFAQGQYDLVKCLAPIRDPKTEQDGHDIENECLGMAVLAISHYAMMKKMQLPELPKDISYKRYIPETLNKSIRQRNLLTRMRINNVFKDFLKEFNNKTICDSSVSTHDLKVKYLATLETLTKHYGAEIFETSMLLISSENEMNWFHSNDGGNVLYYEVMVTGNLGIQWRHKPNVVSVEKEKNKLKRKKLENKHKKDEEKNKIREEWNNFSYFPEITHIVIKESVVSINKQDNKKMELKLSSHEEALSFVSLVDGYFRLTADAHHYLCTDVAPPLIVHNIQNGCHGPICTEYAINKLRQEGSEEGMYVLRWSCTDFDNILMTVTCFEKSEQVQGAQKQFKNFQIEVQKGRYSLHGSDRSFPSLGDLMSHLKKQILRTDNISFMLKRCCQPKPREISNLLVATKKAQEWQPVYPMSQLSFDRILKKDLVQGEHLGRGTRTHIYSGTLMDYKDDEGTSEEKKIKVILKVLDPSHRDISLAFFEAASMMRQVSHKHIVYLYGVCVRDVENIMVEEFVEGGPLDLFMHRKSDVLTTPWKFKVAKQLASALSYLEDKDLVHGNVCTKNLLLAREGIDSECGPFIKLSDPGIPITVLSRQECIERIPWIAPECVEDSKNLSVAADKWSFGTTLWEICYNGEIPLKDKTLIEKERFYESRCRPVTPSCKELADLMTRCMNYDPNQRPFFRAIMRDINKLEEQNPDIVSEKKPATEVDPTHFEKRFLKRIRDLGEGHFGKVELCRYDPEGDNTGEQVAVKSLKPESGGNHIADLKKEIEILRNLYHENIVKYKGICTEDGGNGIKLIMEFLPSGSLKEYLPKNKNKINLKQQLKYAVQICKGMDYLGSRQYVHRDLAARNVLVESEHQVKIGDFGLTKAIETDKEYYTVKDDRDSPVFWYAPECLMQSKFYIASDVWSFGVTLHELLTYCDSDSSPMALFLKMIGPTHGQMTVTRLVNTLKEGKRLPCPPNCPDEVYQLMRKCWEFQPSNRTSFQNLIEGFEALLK
JAK2, sequence (O60674 whole entry): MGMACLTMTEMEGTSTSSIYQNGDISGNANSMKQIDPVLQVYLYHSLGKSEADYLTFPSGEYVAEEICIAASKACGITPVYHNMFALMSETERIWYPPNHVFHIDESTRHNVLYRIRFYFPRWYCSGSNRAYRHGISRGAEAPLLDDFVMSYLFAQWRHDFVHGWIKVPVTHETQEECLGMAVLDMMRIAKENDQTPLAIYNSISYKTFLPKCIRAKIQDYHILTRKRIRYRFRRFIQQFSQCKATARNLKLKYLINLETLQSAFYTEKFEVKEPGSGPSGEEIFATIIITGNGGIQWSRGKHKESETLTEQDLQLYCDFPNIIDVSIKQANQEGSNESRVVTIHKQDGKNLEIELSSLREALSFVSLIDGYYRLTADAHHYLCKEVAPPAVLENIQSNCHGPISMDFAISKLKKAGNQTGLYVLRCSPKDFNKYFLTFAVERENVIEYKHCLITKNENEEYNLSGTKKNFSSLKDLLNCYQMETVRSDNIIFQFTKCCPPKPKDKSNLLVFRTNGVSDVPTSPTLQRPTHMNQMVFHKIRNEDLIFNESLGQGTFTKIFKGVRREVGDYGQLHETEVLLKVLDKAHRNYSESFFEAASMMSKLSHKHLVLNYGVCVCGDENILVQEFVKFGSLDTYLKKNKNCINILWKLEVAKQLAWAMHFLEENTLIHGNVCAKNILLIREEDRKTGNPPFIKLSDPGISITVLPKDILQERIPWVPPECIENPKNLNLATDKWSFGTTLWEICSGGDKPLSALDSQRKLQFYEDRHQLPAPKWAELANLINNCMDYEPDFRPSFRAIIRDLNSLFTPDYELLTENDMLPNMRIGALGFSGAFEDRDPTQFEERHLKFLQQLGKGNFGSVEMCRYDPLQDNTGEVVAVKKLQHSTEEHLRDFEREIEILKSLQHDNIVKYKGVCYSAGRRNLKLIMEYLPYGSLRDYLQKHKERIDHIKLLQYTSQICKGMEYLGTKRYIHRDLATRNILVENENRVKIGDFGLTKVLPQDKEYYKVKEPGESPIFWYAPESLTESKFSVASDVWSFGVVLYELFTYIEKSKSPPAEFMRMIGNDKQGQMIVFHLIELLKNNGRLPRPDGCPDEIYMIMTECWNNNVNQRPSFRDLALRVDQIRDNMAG
TYK2, sequence (P29597 whole entry): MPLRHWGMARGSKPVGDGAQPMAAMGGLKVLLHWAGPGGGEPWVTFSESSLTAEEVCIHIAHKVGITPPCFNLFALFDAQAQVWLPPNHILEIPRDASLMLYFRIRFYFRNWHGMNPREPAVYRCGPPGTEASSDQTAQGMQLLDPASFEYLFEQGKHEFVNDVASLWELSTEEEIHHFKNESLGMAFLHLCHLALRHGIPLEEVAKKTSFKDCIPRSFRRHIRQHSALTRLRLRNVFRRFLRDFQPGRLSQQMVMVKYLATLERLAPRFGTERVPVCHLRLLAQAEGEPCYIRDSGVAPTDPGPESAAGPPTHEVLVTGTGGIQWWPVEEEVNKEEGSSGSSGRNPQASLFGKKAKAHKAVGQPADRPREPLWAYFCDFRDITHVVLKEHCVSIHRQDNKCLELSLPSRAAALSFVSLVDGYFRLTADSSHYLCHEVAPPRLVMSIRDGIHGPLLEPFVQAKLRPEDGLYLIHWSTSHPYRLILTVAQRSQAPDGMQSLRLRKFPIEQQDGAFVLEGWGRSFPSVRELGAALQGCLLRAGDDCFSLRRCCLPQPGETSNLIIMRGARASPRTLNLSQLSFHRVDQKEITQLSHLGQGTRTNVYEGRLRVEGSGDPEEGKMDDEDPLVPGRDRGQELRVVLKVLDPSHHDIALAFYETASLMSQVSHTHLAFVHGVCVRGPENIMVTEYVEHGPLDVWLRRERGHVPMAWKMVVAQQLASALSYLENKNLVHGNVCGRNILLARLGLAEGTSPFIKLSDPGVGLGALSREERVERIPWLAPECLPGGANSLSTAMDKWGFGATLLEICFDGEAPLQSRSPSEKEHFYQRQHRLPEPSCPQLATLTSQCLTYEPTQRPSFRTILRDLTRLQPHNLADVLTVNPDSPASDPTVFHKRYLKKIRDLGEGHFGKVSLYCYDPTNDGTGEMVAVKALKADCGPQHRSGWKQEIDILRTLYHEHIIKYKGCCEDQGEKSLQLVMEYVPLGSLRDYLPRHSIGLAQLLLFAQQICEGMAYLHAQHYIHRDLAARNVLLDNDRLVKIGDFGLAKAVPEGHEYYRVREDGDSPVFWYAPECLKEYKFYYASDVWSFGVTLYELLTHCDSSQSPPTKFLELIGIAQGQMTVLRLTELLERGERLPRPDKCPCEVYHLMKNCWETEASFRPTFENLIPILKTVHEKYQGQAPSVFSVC

Row | SMILES | IC50 [1] [nM] | change in vivo at 10 mg/kg [2] [%] | IC50 (JAK1) [nM] | IC50 (TYK2) [nM] | IC50 (JAK2) [nM] | IC50 (JAK3) [nM]
1 | Cc1cc(Nc2nc(N[C@@H]3C[C@H]4CC[C@@H](C3)N4CCC#N)nc3sccc23)n[nH]1 [Embodiment 62, 3-((3-exo)-3-((4-((5-methyl-1H-pyrazol-3-yl)amino)thieno[2,3-d]pyrimidin-2-yl)amino)-8-azabicyclo[3.2.1]oct-8-yl)propionitrile] | 1.9 | -32.2 | 0.08 | 0.17 |  | 
2 | Cc1cc(Nc2nc(N[C@@H]3C[C@H]4CCC[C@@H](C3)N4C(=O)CN(C)C)nc3sccc23)n[nH]1 [Embodiment 242, 2-(dimethylamine)-1-((3-exo)-3-((4-((5-methyl-1H-pyrazol-3-yl)amino)thieno[2,3-d]pyrimidin-2-yl)amino)-9-azabicyclo[3.3.1]non-9-yl)ethane-1-one] | 0.24 |  | 0.21 | 0.89 | 0.85 | 6.58
3 | Cc1cc(Nc2nc(N[C@@H]3C[C@H]4CC[C@@H](C3)N4C(=O)CN(C)C)nc3sccc23)n[nH]1 [Embodiment 243, 2-(dimethylamine)-1-((3-exo)-3-((4-((5-methyl-1H-pyrazol-3-yl)amino)thieno[2,3-d]pyrimidin-2-yl)amino)-8-azabicyclo[3.2.1]oct-8-yl)ethane-1-one] | 0.24 |  | 0.53 | 1.48 | 2.42 | 148
4 | Cc1cc(Nc2nc(N[C@@H]3C[C@H]4CC[C@@H](C3)N4S(=O)(=O)c3cccnc3)nc3sccc23)n[nH]1 [Embodiment 265, N^4-(5-methyl-1H-pyrazol-3-yl)-N^2-((3-exo)-8(pyridin-3ylsulfonyl)-8-azabicyclo[3.2.1]oct-3-yl)thieno[2,3-d]pyrimidin-2,4-diamine] | 20.4 |  | 1.29 | 1 | 1.81 | 170
5 | N#CCCN1[C@@H]2CC[C@H]1C[C@H](Nc1nc(Nc3cc(CO)[nH]n3)c3ccsc3n1)C2 [Embodiment 273] | 41.9 |  | 1.28 | 2.19 | 2.96 | > 200
